Here are results for two compounds from patent US10435399B2, “HDAC6 inhibitory heterocyclic compound” (TAKEDA PHARMACEUTICAL COMPANY LIMITED, priority 2017, dated 2019).

One data set deals with T1, HDAC6 enzyme (Homo sapiens, UniProt Q9UBN7).
T1 construct: transducing full length HDAC6 gene into Sf-9 insect cells; GST; purchased SignalChem; host or cells: Sf-9 insect cells
T1 sequence (Q9UBN7 1-1215): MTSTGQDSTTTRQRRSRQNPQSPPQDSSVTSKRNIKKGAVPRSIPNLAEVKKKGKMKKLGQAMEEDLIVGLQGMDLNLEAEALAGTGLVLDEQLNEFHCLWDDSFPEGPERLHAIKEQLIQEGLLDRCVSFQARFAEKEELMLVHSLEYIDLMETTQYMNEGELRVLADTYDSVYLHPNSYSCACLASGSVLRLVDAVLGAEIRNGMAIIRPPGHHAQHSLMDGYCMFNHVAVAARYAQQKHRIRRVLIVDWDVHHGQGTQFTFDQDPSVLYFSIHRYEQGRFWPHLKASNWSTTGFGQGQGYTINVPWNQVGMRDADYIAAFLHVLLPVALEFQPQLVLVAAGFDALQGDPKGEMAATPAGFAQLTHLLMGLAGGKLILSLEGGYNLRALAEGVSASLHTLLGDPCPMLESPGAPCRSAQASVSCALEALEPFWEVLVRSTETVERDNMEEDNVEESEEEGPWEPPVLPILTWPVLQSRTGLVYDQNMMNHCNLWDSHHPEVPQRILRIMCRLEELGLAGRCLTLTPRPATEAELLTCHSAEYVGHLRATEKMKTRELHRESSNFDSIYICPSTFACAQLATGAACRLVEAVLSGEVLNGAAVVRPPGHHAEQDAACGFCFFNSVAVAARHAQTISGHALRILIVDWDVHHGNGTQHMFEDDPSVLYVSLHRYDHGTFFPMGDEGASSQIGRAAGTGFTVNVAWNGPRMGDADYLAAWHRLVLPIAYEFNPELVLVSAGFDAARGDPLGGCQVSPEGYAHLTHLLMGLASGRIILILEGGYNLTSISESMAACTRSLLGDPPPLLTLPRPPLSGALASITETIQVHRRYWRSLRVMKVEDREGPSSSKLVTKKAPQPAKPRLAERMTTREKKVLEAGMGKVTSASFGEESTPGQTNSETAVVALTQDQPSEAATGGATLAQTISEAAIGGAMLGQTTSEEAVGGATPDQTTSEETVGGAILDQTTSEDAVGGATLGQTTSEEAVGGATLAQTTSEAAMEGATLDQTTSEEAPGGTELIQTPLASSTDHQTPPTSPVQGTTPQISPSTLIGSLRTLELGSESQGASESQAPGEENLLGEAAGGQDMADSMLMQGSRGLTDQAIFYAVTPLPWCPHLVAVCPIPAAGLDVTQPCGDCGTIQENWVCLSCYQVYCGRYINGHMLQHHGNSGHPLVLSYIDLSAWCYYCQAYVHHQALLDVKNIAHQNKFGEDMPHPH
The data set can be described thus: HDAC6 enzyme inhibitory activity (HDAC-Glo I/II Assay kit). Format: biochemical. The note with it: 10 μM; wells without enzyme = 100% inhibition; read-out: HDAC6 inhibitory rate (%) (10 μM). The gist of the method: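 Test compound is preincubated 60 min at RT with full-length insect-cell HDAC6 in Tris-HCl pH 7.5 with 135 mM NaCl and 1 mM MgCl2. A 20 min room-temperature HDAC-Glo reaction follows, with luminescent read-out.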

Data set [1] deals with acetylated tubulin in brain (hippocampus). The experiment in a line: Increase in acetylated tubulin in brain (hippocampus ELISA). Conditions: mouse hippocampus, oral 3 mg/kg, 1 h after administration, vs vehicle. Format: in vivo, C57BL/6J mouse. The method, then:
Increase in Acetylated Tubulin in Brain
A drug was suspended in 0.5% methyl cellulose to prepare a suspension for administration, having a concentration shown in Table 3. The suspension was orally administered into 8 to […] male C57BL/6J mouse, and after the passage of the time shown in Table 3, the brain was taken out, and hippocampus was obtained. The hippocampus was homogenized under RIPA extract (Wako) to which protease inhibitor (Thermo) and phosphatase inhibitor (Thermo) were added, and centrifuged in 15,000 g for 15 min to prepare a protein extract. The acetylated tubulin and total tubulin in the extract were detected by the following ELISA method. Tubulin antibody (Sigma) was immobilized on 96-well plate (Microlite2+, Thermo), and the plate was stored at 4° C. […] The plate was washed, HRP substrate was added thereto, and the luminescence was measured using a plate reader. The acetylated tubulin and total tubulin were quantified from logistics curve based on dilution series using the mouse hippocampus tissue extract, and the acetylated tubulin relative to total tubulin was calculated, and evaluated as an relative tubulin acetylation level. […] After F test for vehicle group and drug group, the significant difference between the two groups was analyzed by Student t-test or Welch test (indicated as * p<0.05, ** p<0.01). […]
(In an ELISA, binding on a coated surface is turned into a signal by an enzyme label.)

A further data set relates to TK6 cells. The experiment in a line: γH2AX assay using TK6 cells. The note with it: 4 hr treatment, up to 100 μM. The data set is classed as cell-based, Human. On the procedure: γH2AX Assay Using TK6 Cells
Human lymphoblasts-derived TK6 cells were treated with the compounds of Examples 489, 512 or 519 at 0, 10, 30 or 100 μmol/L (final concentration) for 4 hr, and the presence or absence of DNA damage was evaluated by measuring phosphorylation of histone H2AX (γH2AX) as a marker. In addition, cytotoxicity after 24-hr treatment was also evaluated.
Exponentially growing TK6 cells were prepared at the cell density of 4×10^5 cells/mL in a culture medium, and was added to a 96-well plate by 100 μL/well. A test compound solution (2% DMSO) prepared using a culture solution, having twice the concentration on the above-mentioned final concentrations, was added thereto by 100 μL/well. This plate was incubated at 37° C., the cell suspension after 4 hr was sampled, and stained using In Vitro MultiFlow™ DNA Damage Kit (Litron), and H2AX phosphorylation level in each nucleus was measured using a flow cytometer and average value was calculated. The H2AX phosphorylation level in the concurrent vehicle control group was also measured and average value was calculated. The rate of change in the H2AX phosphorylation level in the treatment groups relative to that in the control group was calculated, and Dunnett test (significance level: two-tailed 1%) was performed. In addition, the cell suspension after 24 hr treatment was sampled, and the nucleus number was measured, and variation in the nucleus number in the treatment groups relative to that in the concurrent vehicle control group was used as an indicator of cytotoxicity. […] Therefore, the potential of the compounds for DNA strand breakage was judged to be negative under this test condition.

Another data set has as its system tauopathy mouse model. Conditions: cited from earlier work.

`CC(F)(F)C(=O)N[C@H]1[C@H](N2Cc3ccc(-c4nnc(C(F)F)o4)cc3C2=O)CCCC1(F)F` [Example 512, N-((1S,6R)-6-(6-(5-(difluoromethyl)-1,3,4-oxadiazol-2-yl)-1-oxo-1,3-dihydro-2H-isoindol-2-yl)-2,2-difluorocyclohexyl)-2,2-difluoropropanamide]: the inhibition at 10 µM on HDAC6 enzyme came out at 99%. For the same compound, in data set [1], the “relative tubulin acetylation level (acetylated tubulin relative to total tubulin)” value was “increase in significant tubulin acetylation level was observed”. Moreover, in the data set with TK6 cells, the “histone H2AX phosphorylation (γH2AX) resulted from DNA strand breakage” value was “did not induce histone H2AX phosphorylation” and the “potential for DNA strand breakage (judgement)” value is listed as “negative”.
Take `CN1CCc2c(c3ccccc3n2Cc2ccc(C(=O)NO)cc2)C1` [Tubastatin A]: in the data set on tauopathy mouse model, the acetylation of tubulin entry is given as “increases acetylation of tubulin” and the therapeutic effectiveness result is listed as “shows therapeutic effectiveness”.
